Where two headings read alike, the source gives them in different places.
Assays:
A549 cells = details: for b-catenin/ HDAC2 normalized / b-catenin/ Histone 3 normalized / b-catenin/ tubulin normalized / N-Cadherin/GAPDH normalized / Smad2/3/GAPDH normalized / p- Smad2/3/GAPDH normalized: TGF-β=1; for P65/GAPDH normalized / p-P65/GAPDH normalized: TGF-β+TNF-a=1; for E-Cadherin/GAPDH normalized: DMSO=1
healthy subjects = details: in vivo
[1] = 1 μM, TGF-β+TNF-a group, Batch 1
[2] = 1 μM, TGF-β+TNF-a group, Batch 2
[3] = 1 μM, TGF-β+TNF-a group, Batch 3
[4] = 3 μM, TGF-β+TNF-a group, Batch 1
[5] = 3 μM, TGF-β+TNF-a group, Batch 2
[6] = 3 μM, TGF-β+TNF-a group, Batch 3

## CC(C)n1cnc(-c2ccc(F)cc2)c1-c1nc(C(=O)Nc2ccc(N3CCN(C)CC3)cc2)c[nH]1 [INS018_055, 2-[4-(4-fluorophenyl)-1-(prop-2-yl)imidazol-5-yl]-N-[4-(4-methylhexahydropyrazin-1-yl)phenyl]-1H-imidazole-4-carboxamide]
A549 cells; 1 μM, Batch 4
  b-catenin/ HDAC2 normalized: 1.855
  b-catenin/ Histone 3 normalized: 0.679
  b-catenin/ tubulin normalized: 1.374
A549 cells; 1 μM, TGF-β group, Batch 1
  P65/GAPDH normalized: 0.3482
  p-P65/GAPDH normalized: 0.05447
A549 cells; 1 μM, TGF-β group, Batch 2
  P65/GAPDH normalized: 0.9166
  p-P65/GAPDH normalized: 0.06504
A549 cells; 1 μM, TGF-β group, Batch 3
  P65/GAPDH normalized: 0.4988
  p-P65/GAPDH normalized: 0.05557
A549 cells; [1]
  P65/GAPDH normalized: 0.397
  p-P65/GAPDH normalized: 0.497
A549 cells; [2]
  P65/GAPDH normalized: 0.7304
  p-P65/GAPDH normalized: 0.6585
A549 cells; [3]
  P65/GAPDH normalized: 0.3751
  p-P65/GAPDH normalized: 0.3266
A549 cells; 3 μM, Batch 1
  E-Cadherin/GAPDH normalized: 1.832
  N-Cadherin/GAPDH normalized: 0.1802
  Smad2/3/GAPDH normalized: 1.447
  p- Smad2/3/GAPDH normalized: 0.01636
A549 cells; 3 μM, Batch 2
  E-Cadherin/GAPDH normalized: 1.252
  N-Cadherin/GAPDH normalized: 0.1613
  Smad2/3/GAPDH normalized: 1.278
  b-catenin/ HDAC2 normalized: 1.403
  b-catenin/ Histone 3 normalized: 0.21
  b-catenin/ tubulin normalized: 0.2321
  p- Smad2/3/GAPDH normalized: 0.09113
A549 cells; 3 μM, Batch 3
  E-Cadherin/GAPDH normalized: 1.09
  N-Cadherin/GAPDH normalized: 0.0841
  Smad2/3/GAPDH normalized: 1.0906
  b-catenin/ HDAC2 normalized: 0.958
  b-catenin/ Histone 3 normalized: 0.258
  b-catenin/ tubulin normalized: 1.067
  p- Smad2/3/GAPDH normalized: 0.09865
A549 cells; 3 μM, Batch 4
  b-catenin/ HDAC2 normalized: 2.079
  b-catenin/ Histone 3 normalized: 0.1136
  b-catenin/ tubulin normalized: 1.238
A549 cells; 3 μM, TGF-β group, Batch 1
  P65/GAPDH normalized: 0.5411
  p-P65/GAPDH normalized: 0.07665
A549 cells; 3 μM, TGF-β group, Batch 2
  P65/GAPDH normalized: 0.9083
  p-P65/GAPDH normalized: 0.116
A549 cells; 3 μM, TGF-β group, Batch 3
  P65/GAPDH normalized: 0.5638
  p-P65/GAPDH normalized: 0.08352
A549 cells; [4]
  P65/GAPDH normalized: 0.3919
  p-P65/GAPDH normalized: 0.3522
A549 cells; [5]
  P65/GAPDH normalized: 0.5755
  p-P65/GAPDH normalized: 0.6038
A549 cells; [6]
  P65/GAPDH normalized: 0.3478
  p-P65/GAPDH normalized: 0.3112
Healthy subjects
  Abdominal pain: 1 (5.6) [1]
  Alanine aminotransferase increased: 1 (5.6) [1]
  Alopecia: 0 [0]
  Any SAE: 0 [0]
  Any Severe TEAE: 0 [0]
  Any Treatment-Related Moderate TEAE: 0 [0]
  Any Treatment-Related SAE: 0 [0]
  Any Treatment-Related Severe TEAE: 0 [0]
  Aphthous ulcer: 1 (5.6) [1]
  Aspartate aminotransferase increased: 1 (5.6) [1]
  Back pain: 1 (5.6) [1]
  Blood creatine phosphokinase increased: 1 (5.6) [1]
  Catheter site bruise: 1 (5.6) [1]
  Catheter site inflammation: 1 (5.6) [1]
  Catheter site pain: 0 [0]
  Catheter site swelling: 1 (5.6) [1]
  Constipation: 1 (3.3) [1]
  Cough: 1 (3.3) [1]
  Diarrhoea: 1 (5.6) [1]
  Gastrointestinal disorder: 0 [0]
  Immune system disorders: 1 (5.6) [1]
  Lymph node palpable: 1 (5.6) [1]
  Medical device site irritation: 2 (6.7) [2]
  Nasal congestion: 1 (5.6) [1]
  Nausea: 1 (5.6) [1]
  Nightmare: 1 (5.6) [1]
  Paraesthesia: 0 [0]
  Phlebitis: 3 (10.0) [3]
  Pruritus: 1 (5.6) [1]
  Psychiatric disorders: 1 (5.6) [1]
  Rhinorrhoea: 0 [0]
  Seasonal allergy: 1 (5.6) [1]
  Skin mass: 1 (5.6) [1]
  Syncope: 1 (3.3) [1]
  Urticaria: 0 [0]
  Vascular disorders: 3 (10.0) [3]
